Measured values from patent US8802439B2, “Methods for enhancing infectivity of retroviruses” (priority 2009, dated 2014).
Entries after “also recorded” stand apart in the source; their conditions may differ.

How the values were obtained:
HIV-1 [1] = experiment: HIV-1 viral production in 293T producer cells, p24 ELISA of supernatants; format: cell-based
Excerpt: Plasmids: Laboratory-adapted provirus NL4.3, and the CypA-independent NL4.3 CAi2 were kindly provided by Akio Adachi (Department of Virology, Institute of Health Biosciences, The University of Tokushima Graduate School, JAPAN). Mutant R9G89V was a gift from P. Gallay (TSR1) as were NL4.3-GFP and SIV-GFP (originally Dana Gabuzda, Dana Farber Cancer Institute). NL4.3 A92E was kindly provided by W. Phares (Genetics Unit, Novartis Forschungsinstitut, Vienna, Austria). R9Δgp160 plasmid clone was kindly provided by C. Aiken (Vanderbilt Medical Center). VSV-G (CMV-VSV-G) was kindly provided by D. Trono (École Polytechnique Fédérale de Lausanne). Both bMLV-GFP and nMLV-GFP in the form of pCIG3-N, pCIG3-B as well as pCNCG were kindly provided by J. Stoye (National Institute for Medical Research, UK). Isomerase mutant Pin1 (pFLAG-Pin1R68,69A) and WW-domain mutant Pin1 (pFLAG-Pin1 W34A) were constructed by site-directed mutagenesis. Pseudotyping experiments were performed using DNA constructs encoding the VSV-G generously provided by D. Trono. Human Pin1 was cloned into pFLAG (Sigma-Aldrich) making pFLAG-Pin1. Viruses were produced by transfection of 293T cells using either GeneJuice (Novagen) or calcium phosphate. […] All viruses were harvested 24-48 hours post-transfection and filtered (0.2-μM filter, Steriflip Millipore). […]

bMLV-GFP = experiment: Infectivity of bMLV-GFP virions (RT-normalized), GFP fluorescence via FACS; format: cell-based
Experimental: 293T cells were transfected with HIV-1-GFP, SIV-GFP, bMLV-GFP, and nMLV-GFP proviral constructs, and in each case CMV-VSV-G, in the presence or absence of PiB or excess Pin1 as described above. Released virions were normalized via RT assay (EnzChek® Reverse Transcriptase Assay Kit), and infectivity on naïve TZMb1 cells was analyzed by GFP fluorescence via FACS (% cells infected).
Infection assays for retrovirus: Single-round infections: CD4^+ TZM-bl 100,000 cells/well/mL were seeded onto 24-well plates 24 hours prior to infection. These cells were infected in quadruplicate to 24-well plates. Infectivity was scored using an enzymatic galactosidase activity assay. Specifically, infected TZM-bl cells were washed and lysed, and 20 μl of lysate was transferred to a 96-well plate for detecting β-galactosidase activity. 100 μl of reaction buffer Galacton-Star substrate (Applied Biosystems, Bedford, Mass.), diluted 1:50, was added to 20 μl of lysate, and the light emission was measured over 1 second in a microplate luminometer after 30 minutes incubation. […] Replication was monitored by p24 ELISA. […] Viruses were used to infect in duplicate wells, incubated for 48 hours, washed with PBS, trypsinized, fixed in 1% formaldehyde and subsequently analyzed by fluorescence-activated cell sorting (FACS) for percentage cells infected.
We further examined whether blocking Pin1 in producer cells can enhance the infectivity of retroviruses in different primate target cells. […] Infectivity was analyzed by GFP fluorescence via FACS. […] If more cells are infected than the number infected by viruses from untreated cells, this is expressed as a value above 100%—e.g. 2000 cells/10,000 vs 4000 cells/10,000 would be 100% and 200% respectively. […]
In addition to human producer cells, we also examined effect of blocked Pin activity on infectivity of viruses produced in mouse cell lines and nonhuman primate cell lines. […] Infectivity was analyzed by GFP fluorescence via FACS. […]

HIV-1 [2] = experiment: Single-round infectivity on TZM-bl cells of HIV-1 produced in Pin1-inhibited 293T cells (Galacton-Star galactosidase assay); format: cell-based; details: for boost of infectivity: TZM-bl target cells
Excerpt: Viral inocula from transfections above were normalized to equal virion particle number via p24 ELISA and used to infect target CD4^+ HeLa cells (1×10^5 TZM-bl). Infectivity was scored using the Galacton-Star enzymatic galactosidase activity assay, and infectivity quantified by relative […] units (R.F.U).
Plasmids: Laboratory-adapted provirus NL4.3, and the CypA-independent NL4.3 CAi2 were kindly provided by Akio Adachi (Department of Virology, Institute of Health Biosciences, The University of Tokushima Graduate School, JAPAN). Mutant R9G89V was a gift from P. Gallay (TSR1) as were NL4.3-GFP and SIV-GFP (originally Dana Gabuzda, Dana Farber Cancer Institute). NL4.3 A92E was kindly provided by W. Phares (Genetics Unit, Novartis Forschungsinstitut, Vienna, Austria). R9Δgp160 plasmid clone was kindly provided by C. Aiken (Vanderbilt Medical Center). VSV-G (CMV-VSV-G) was kindly provided by D. Trono (École Polytechnique Fédérale de Lausanne). Both bMLV-GFP and nMLV-GFP in the form of pCIG3-N, pCIG3-B as well as pCNCG were kindly provided by J. Stoye (National Institute for Medical Research, UK). Isomerase mutant Pin1 (pFLAG-Pin1R68,69A) and WW-domain mutant Pin1 (pFLAG-Pin1 W34A) were constructed by site-directed mutagenesis. Pseudotyping experiments were performed using DNA constructs encoding the VSV-G generously provided by D. Trono. Human Pin1 was cloned into pFLAG (Sigma-Aldrich) making pFLAG-Pin1. Viruses were produced by transfection of 293T cells using either GeneJuice (Novagen) or calcium phosphate. […] All viruses were harvested 24-48 hours post-transfection and filtered (0.2-μM filter, Steriflip Millipore). HIV-1 viruses were normalized by p24 ELISA (Alliance HIV-1 p24 Antigen ELISA Kit, Perkin Elmer), and/or were normalized via the EnzChek® Reverse Transcriptase Assay Kit (E-22064) (Molecular Probes).
Infection assays for retrovirus: Single-round infections: CD4^+ TZM-bl 100,000 cells/well/mL were seeded onto 24-well plates 24 hours prior to infection. These cells were infected in quadruplicate to 24-well plates. Infectivity was scored using an enzymatic galactosidase activity assay. Specifically, infected TZM-bl cells were washed and lysed, and 20 μl of lysate was transferred to a 96-well plate for detecting β-galactosidase activity. 100 μl of reaction buffer Galacton-Star substrate (Applied Biosystems, Bedford, Mass.), diluted 1:50, was added to 20 μl of lysate, and the light emission was measured over 1 second in a microplate luminometer after 30 minutes incubation. For human PBMC infections, cells were exposed to 10 ng of wild-type virus for 6 hours, washed, and split into two flasks: one with 10 μM PiB added on day 0 and 3, and one without PiB. Replication was monitored by p24 ELISA. For measuring infectivity of GFP-virus, 50,000 TZMb1, sMAGI, OMK, Vero, BSC-1 and CV-1 cells/well/mL were seeded onto 6-well plates respectively 24 hours prior to infection. Viruses were used to infect in duplicate wells, incubated for 48 hours, washed with PBS, trypsinized, fixed in 1% formaldehyde and subsequently analyzed by fluorescence-activated cell sorting (FACS) for percentage cells infected.
(§1) To examine a potential role for Pin1 in HIV-1 replication we used two inhibitors of Pin1: juglone and PiB. […] 293T cells were transfected with a proviral construct encoding wild-type HIV-1 in the presence or absence of PiB or juglone.

[3] = test system: other prolyl isomerases such as CypA or FKBP; details: cited from earlier work
293T cells = details: cell count and trypan blue staining (data not shown)
Excerpt: as §1

[4] = produced in 293T with 10 μm PiB, TZMb1

CCOC(=O)CN1C(=O)c2ccc3c4c(ccc(c24)C1=O)C(=O)N(CC(=O)OCC)C3=O [PiB, diethyl-1,3,6,8-tetrahydro-1,3,6,8-tetraoxobenzo[lmn][3,8]phenanthroline-2,7-diacetate]
viral production (HIV-1 capsid in viral supernatants by p24 ELISA) (HIV-1 [1]): Neither inhibitor influences viral production; also recorded: do not alter viral production
infectivity of MLV produced in mouse embryonic fibroblasts (bMLV-GFP; MEF producer cells with PiB, TZM target cells): enhanced infectivity
boost of bMLV-GFP infectivity (bMLV-GFP; produced in 293T with PiB, TZMb1 cells): 2 fold
infectivity of bMLV-GFP in primate target cell panel (bMLV-GFP; produced with PiB, TZM, OMK, sMAGI, Vero, CV-1 target cells): enhanced infectivity
HIV-1 infectivity after treatment of target cells (HIV-1 [2]; TZM-bl pre-incubated with 0, 2, 10 μM PiB for 24 hours before VSV-G pseudotyped virus, read 48 hours post-infection): no effect on HIV-1 infectivity
infectivity of VSV-G pseudotyped HIV-1 lacking gp160 (NL4.3 Δenv) (HIV-1 [2]; produced in 293T in the presence of 2 μM or 10 μM PiB, TZM-bl): enhanced
boost of wild-type NL4.3 virus in the FIG. 3H experiment (HIV-1 [2]; [4]): rather mild boost
infectivity of CypA-deficient R9G89V mutant HIV-1 (HIV-1 [2]; [4]): dramatically boosted
boost of infectivity (HIV-1 [2]; viruses produced in 293T in the presence of 2.0 μM inhibitor): 2 fold
boost of infectivity (HIV-1 [2]; viruses produced in 293T in the presence of 10 μM PiB): 8 fold
inhibition of other PPIase families (CypA, FKBP) [3]: do not inhibit
producer cell viability (293T cells): no effect
